Source: patent publication US9074009B2, “Stabilized MAML peptides and uses thereof” (Dana-Farber Cancer Institute, Inc., priority 2006, dated 2015)
Bridge positions count the residues as written; N and C are the ends. Square brackets hold non-standard residues; d marks the D form. Peptide text beside a SMILES is read from it. * marks the point of attachment. Biotin = O=C1N[C@H]2[C@H](CS[C@H]2CCCCC(=O)*)N1; S5 = C=CCCC[C@](C)(N)C(=O)O; βAla = NCCC(=O)O

How the values were obtained:
TALL1 cells = test: Viability of TALL1 cells; format: cell-based; conditions: FIG. 18
[1] = test system: Notch complex mediated transcription; test: Beta-lactamase gene under CSL responsive promoter in T-ALL cells (MOLT4); format: cell-based; conditions: decrease similar to RNAi against Notch or lactamase, FIG. 22
From the text: T-ALL cells (MOLT4) harboring a beta-lactamase gene under the control of a CSL responsive promoter was used to study the effect of SAHN1 and SAHN11 on Notch complex mediated transcription.

ICN and CSL = target: T1, ICN and CSL (Homo sapiens, UniProt P46531+Q06330); test: Immunoprecipitation from T-ALL (KOPTK1) cell lysates; format: binding; conditions: FIG. 19
T1 construct: endogenous in cells; host or cells: KOPTK1 (T-ALL) cell lysates
T1 sequence (P46531 1754-2555 limits assumed): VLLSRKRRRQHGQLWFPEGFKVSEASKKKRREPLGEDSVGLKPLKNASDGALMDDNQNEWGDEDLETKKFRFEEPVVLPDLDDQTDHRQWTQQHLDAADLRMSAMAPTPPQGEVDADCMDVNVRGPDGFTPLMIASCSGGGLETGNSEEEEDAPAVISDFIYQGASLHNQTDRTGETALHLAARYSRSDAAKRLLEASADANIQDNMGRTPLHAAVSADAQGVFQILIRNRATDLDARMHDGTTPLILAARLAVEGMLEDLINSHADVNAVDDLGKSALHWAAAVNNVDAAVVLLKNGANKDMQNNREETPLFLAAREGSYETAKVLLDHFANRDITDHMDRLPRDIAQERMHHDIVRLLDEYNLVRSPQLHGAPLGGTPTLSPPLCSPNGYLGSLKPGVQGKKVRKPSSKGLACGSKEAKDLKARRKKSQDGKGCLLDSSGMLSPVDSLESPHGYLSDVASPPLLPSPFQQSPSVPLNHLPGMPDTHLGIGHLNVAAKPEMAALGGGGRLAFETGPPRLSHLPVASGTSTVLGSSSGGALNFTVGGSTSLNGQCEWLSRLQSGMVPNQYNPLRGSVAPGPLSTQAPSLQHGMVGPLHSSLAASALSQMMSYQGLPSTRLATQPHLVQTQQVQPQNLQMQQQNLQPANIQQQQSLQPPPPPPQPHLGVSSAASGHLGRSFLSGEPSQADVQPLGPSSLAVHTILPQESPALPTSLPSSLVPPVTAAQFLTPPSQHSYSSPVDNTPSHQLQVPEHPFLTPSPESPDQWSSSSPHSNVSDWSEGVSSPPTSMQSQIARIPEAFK
T1 sequence (Q06330 whole entry): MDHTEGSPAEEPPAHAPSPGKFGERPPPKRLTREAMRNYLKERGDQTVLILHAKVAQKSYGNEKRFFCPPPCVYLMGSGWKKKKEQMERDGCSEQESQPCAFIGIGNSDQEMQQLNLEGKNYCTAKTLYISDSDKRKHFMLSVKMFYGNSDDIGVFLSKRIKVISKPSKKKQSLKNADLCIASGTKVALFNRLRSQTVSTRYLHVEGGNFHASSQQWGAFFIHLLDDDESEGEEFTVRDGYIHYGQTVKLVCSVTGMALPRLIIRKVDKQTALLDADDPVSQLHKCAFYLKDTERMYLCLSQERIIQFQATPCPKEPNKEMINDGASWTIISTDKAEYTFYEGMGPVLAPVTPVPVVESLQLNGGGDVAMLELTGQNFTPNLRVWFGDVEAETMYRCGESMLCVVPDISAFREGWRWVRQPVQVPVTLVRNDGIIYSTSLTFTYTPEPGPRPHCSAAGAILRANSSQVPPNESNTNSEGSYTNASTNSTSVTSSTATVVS

CSL-responsive reporter = CSL-responsive reporter in transfected MOLT4 cells; format: cell-based; conditions: FIG. 12
From the text: MOLT4 cells transfected with a CSL-responsive reporter were used to test whether stapled SAHN11 can interfere with Notch-mediated activation of transcription.

MOLT4 cells = test: Viability of MOLT4 cells; format: cell-based; conditions: FIG. 14 and 17
[2] = test system: gamma secretase resistant T-ALL cells (MOLT4); test: Apoptotic response in gamma secretase resistant T-ALL cells (MOLT4); format: cell-based; conditions: MOLT4, after 24 or 48 hours, FIG. 24
From the text: The results of this analysis are show in FIG. 24.

[3] = Circular dichroism spectra, alpha helicity; format: physicochemical; conditions: cross-linked vs not cross-linked, FIG. 5
From the text: FIG. 4 is a schematic drawing and detailed structural depiction of a modified polypeptide having the sequence of REM-G1 (SAHN1).

KOPTK1 cells = format: cell-based
From the text: The results of this analysis are show in FIG. 25.

HEY1 = HEY1 expression in T-ALL cells (MOLT4); format: cell-based; conditions: FIG. 23
From the text: (§1) The results of this analysis are show in FIG. 23.

[4] = target: T2, ICN1 bound to immunoprecipitated MAML (Homo sapiens, UniProt P46531+Q06330); test: Competition for ICN1 bound to immunoprecipitated MAML in T-ALL cellular lysates; format: binding; conditions: FIG. 20 and 21
T2 construct: endogenous in cells
T2 sequence (P46531 1754-2555 limits assumed): as the sequence (P46531 1754-2555 limits assumed) above
T2 sequence (Q06330 whole entry): as the sequence (Q06330 whole entry) above

Cells = format: cell-based
Experimental: Automated quantitative immunofluorescence was used to determine the intracellular distribution of fluorophore-labeled stapled alpha helices. Cells were incubated with FITC-conjugated peptides SAHN1, SAHN2, or SAHN6; or control. At 16 hours measurements of cellular fluorescence were taken using epifluorescence microscopy. The results of these studies are shown in FIG. 10 in which each circle represents an individual cell and each column represents a treatment condition.
Automated quantitative immunofluorescence was also used to determine the intracellular distribution of fluorophore-labeled stapled alpha helices. Cells were incubated with FITC-conjugated peptides SAHN1, or unstapled SAHN1.

ALL-SIL cells = test: Viability of ALL-SIL cells; format: cell-based; conditions: FIG. 15
HES1 = HES1 expression in T-ALL cells (MOLT4); format: cell-based; conditions: FIG. 23
From the text: as §1

[5] = test system: neoplastic murine lymphocytes derived from transgenic mice harboring human Notch mutations

Row | pull down of both ICN and CSL (ICN and CSL) | alpha helical content (circular dichroism) [3] | IC50 (KOPTK1 cells) | competing away ICN1 bound to immunoprecipitated MAML [4] | Structure (SMILES) | viability of TALL1 cells (TALL1 cells) | transcription from CSL responsive promoter (beta-lactamase) [1] | expression of the CSL-responsive reporter (CSL-responsive reporter) | viability of MOLT4 cells (MOLT4 cells) | apoptotic response [2] | viability of KOPTK1 cells (KOPTK1 cells; FIG. 16) | expression of HEY1 (HEY1) | effect of stapling on intracellular passage (Cells) | intracellular passage (cellular fluorescence) (Cells) | viability of ALL-SIL cells (ALL-SIL cells) | expression of HES1 (HES1) | cytotoxicity to neoplastic murine lymphocytes [5]
1 | can pull down both ICN and CSL | – | – | – | CC[C@H](C)[C@H](NC(=O)[C@H](CCCNC(=N)N)NC(=O)[C@H](CCCNC(=N)N)NC(=O)CCNC(=O)[C@H](CCCCNC(=O)CCCC[C@@H]1SC[C@@H]2NC(=O)N[C@@H]21)NC(C)=O)C(=O)N[C@@H](CCC(=O)O)C(=O)N[C@@H](CC(C)C)C(=O)N[C@@H](CS)C(=O)N[C@@H](CCCNC(=N)N)C(=O)N[C@@H](CCCNC(=N)N)C(=O)N[C@@H](Cc1c[nH]cn1)C(=O)N[C@@H](Cc1c[nH]cn1)C(=O)N[C@@]1(C)CCCC=CCCC[C@@](C)(C(=O)N[C@@H](CCCNC(=N)N)C(=O)N[C@@H](Cc2ccc(O)cc2)C(=O)N[C@@H](CCC(=O)O)C(=O)N[C@@H](C)C(=O)N[C@H](C(N)=O)C(C)C)NC(=O)[C@H](CCC(=O)O)NC(=O)[C@H](CS)NC(=O)[C@H]([C@@H](C)O)NC1=O [SAHN11] (Ac-K(Biotin)[βAla]RRIELCRRHH[S5]TCE[S5]RYEAV-NH2; staple 13-17; N-terminus assumed) | reduced the viability of TALL1 cells | decreased transcription | reduced expression of the CSL-responsive reporter in a dose-dependent manner | reduced the viability of MOLT4 cells | – | – | – | – | – | – | – | –
2 | can pull down both ICN and CSL | 96% | 8 µM | can compete away ICN1 | CC[C@H](C)[C@H](NC(=O)[C@H](CCCNC(=N)N)NC(=O)[C@H](CCCNC(=N)N)NC(=O)[C@H](CCCNC(=N)N)NC(=O)[C@H](CC(C)C)NC(=O)[C@H](CCCNC(=N)N)NC(=O)[C@H](CCC(=O)O)NC(=O)CCNC(C)=O)C(=O)N[C@@]1(C)CCCC=CCCC[C@@](C)(C(=O)N[C@@H](Cc2c[nH]cn2)C(=O)N[C@@H](Cc2c[nH]cn2)C(=O)N[C@@H](CO)C(=O)N[C@H](C(N)=O)[C@@H](C)O)NC(=O)[C@H](CCCNC(=N)N)NC(=O)[C@H](CS)NC(=O)[C@H](CC(C)C)NC1=O [SAHN1] (Ac-[βAla]ERLRRRI[S5]LCR[S5]HHST-NH2; staple 9-13) | – | decreased transcription | – | – | induces an apoptotic response | reduced the viability of KOPTK1 cells | decrease expression of HES1 and HEY1 | stapling of the peptide did not, in this instance, appear to impact intracellular passage | exhibited significant intracellular passage | reduced the viability of ALL-SIL cells | decrease expression of HES1 | is cytotoxic to neoplastic murine lymphocytes
